Test results: patent publication US10390536B2, “Methods, compounds and compositions for repelling insects and/or arachnids” (National Center for Scientific Research “Demokritos”, priority 2013, dated 2019)

What was measured:
A. gambiae females = test: wind tunnel spatial repellence (landings on treated netting downwind of dirty sock); assay type: in vivo, Anopheles gambiae; conditions: for inhibition of landing on treated netting (in words): 38 or 57 μg DEET/cm^2, 38 or 76 μg carvacrol/cm^2; for Mean Landings/5 minutes: control 24.6
Protocol: Carvacrol was tested in a wind tunnel (60×60×120 cm) in order to test for inhibition of the attractiveness of dirty socks, which are otherwise very attractive to the malaria mosquito A. gambiae. Experiments were conducted at 25° C. and 80% relative humidity at a wind speed of 0.5 m·s^−1 during the last 6 hours of scotophase. Dim fluorescent light (4 Lux) was provided from above (Philips TLD, 32 Watts at 36 KHz). A tube (55 mm inner diameter) was covered at its downwind end with mosquito netting which was treated with 38 or 57 μg DEET/cm^2 or 38 or 76 μg carvacrol/cm^2 or the solvent (ethanol) alone (control). Groups of 30 A. gambiae females were released from a release cage at the downwind end of the wind tunnel and their landing behaviour on the mosquito netting was recorded with a high definition video camera. The number of mosquitoes landing on the mosquito netting over 5 minutes was counted.

[1] = system: sand fly Lutzomyia longipalpis; test: warm body repellence assay with sand flies; assay type: in vivo; conditions: for Median of landings: 2 minutes, control 48
Protocol: To test the effects of repellent compounds or compositions disclosed herein on other blood-feeding arthropods, a warm body repellence assay (Krober et. al. (2010). An In Vitro Assay for Testing Mosquito Repellents Employing a Warm Body and Carbon Dioxide as a Behavioral Activator. Journal of the American Mosquito Control Association 26(4): 381-386] was conducted using the sand fly Lutzomyia longipalpis (Diptera: Psychodidae), the principal vector of Leishmania (or leismaniasis) in the Americas.
[…] Fifty L. longipalpis sandflies (male:female ratio 1:1) of 3-7 days old were tested during the scotophase under conditions described for A. gambiae in Example 6. The test cages were lined with filter paper. Reduction in the number of landings by L. longipalpis sand fly females on a warm body treated with different test products compared to the control with solvent (ethanol p.a.) alone was used to evaluate repellence. Tests were conducted in complete darkness using IR LEDs to illuminate the warm body. Landings counted during 2 minutes were normalized by experimental day, cage, and number of females by a mixed linear model before testing for differences.

[2] = system: female A. gambiae antennae; test: GC-coupled electroantennogram (GC-EAG) recording; parameters: species or system Anopheles gambiae; conditions: compounds eluting from GC of essential oils
Excerpt: Electrophysiological recordings from whole mosquito antenna: Coupling EAG recordings from an A. gambiae antenna to the effluent of a high-resolution gas chromatographic (GC) column permitted the determination of the elution profiles of biologically active components of essential oils showing repellence. Recordings were made from to 4-9 day-old female mosquitoes. The head was excised at the occipital opening and placed on the reference glass electrode containing Hayes mosquito Ringer [Hayes (1953). Determination of a physiological saline for Aedes aegypti (L.). J Econ Entomol 46: 624-627] mounted in a humidified air-stream (90-98% RH; Guerin and Visser (1980). Electroantennogram Responses of the Carrot Fly, Psila rosae, to Volatile Plant Components. Physiological Entomology 5(2): 111-119] and its antenna exposed to compounds eluting from the GC column (Biessamann et al. (2010). The Anopheles gambiae odorant binding protein 1 (AgamOBP1) mediates indole recognition in the antennae of female mosquitoes. PLoS One 5(3): e9471]. The EAG response was recorded via a glass electrode filled with Kaissling sensillum lymph Ringer [Kaissling (1995). Single unit and electroantennogram recordings in insect olfactory organs. In Experimental Cell Biology of Taste and Olfaction. Current Techniques and Protocols, Spielman AlaB, J. G. (ed), 361-386. Boca Raton, Fla.: CRC Press] brought into contact with the terminal antennal segment whose tip was cut off. Only antennae showing an EAG response at least double the noise level to a 1 ml puff of air over 1 μg geranylacetone in a 5 ml stimulus syringe were used for recording EAG responses to the essential oils.
To conduct a GC-EAG analysis, about 2 μg of an essential oil was injected in 1-3 μL of dichloromethane (DCM) onto an apolar capillary column (95% dimethyl polysiloxan with 5% diphenyl polysiloxan, 15 m long, 0.25 mm i.d., 0.10 μm film thickness; BGB Analytik, Switzerland) installed in a 5300 Carlo Erba Instruments chromatograph. Hydrogen was used as carrier gas with the oven held at 40° C. for 3 minutes then heated up 25° C./min to 230° C. and held at the final temperature for 15 min. The column effluent was split (50:50) between the flame ionization detector (FID) of the chromatograph and the mosquito antennal preparation. The EAG signal was fed into an AC/DC amplifier (×100) via a high impedance preamplifier (×10), recorded on the hard disk of a PC via a 16-bit analogue-digital IDAC4 interface (Syntech, Netherlands) and monitored simultaneously with an oscilloscope (Tektronix 5103, USA). Kovats retention indices (KIs) were calculated for the EAG-active compounds present in the extracts and fractions. FIG. 1 illustrates the results obtained using the GC-EAG analysis. […]

[3] = system: Ixodes ricinus (Ixodidae) nymphs; test: tick repellence assay on warm glass plate; assay type: in vivo; conditions: 10 μg/cm^2; nymphs dropped off or walked down the warm glass plate; control 8
Protocol: The products were tested at a dose of 10 μg/cm^2 on Ixodes ricinus (Ixodidae) nymphs according the protocol described in Krober, T. et al. (2013). A standardised in vivo and in vitro test method for evaluating tick repellents. Pesticide Biochemistry and Physiology 107: 160-168] with the following modifications: The test products (dissolved in ethanol) were allowed to evaporate for 40 s (as in the warm body test with mosquitoes) and the warm glass plates were used up to 250 s after application of the test products for the repellence assay. Four repetitions were made with carvacrol with 3, 4, 4 and 5 nymphs, i.e. with a total of 16 I. ricinus nymphs, of which in total 75% (12) were affected in that they either dropped off or walked down the warm glass plate.
The mixture of carvacrol+cumin alcohol+butyl-cinnamate was tested in two repetitions with 6 and 7 nymphs, i.e. with a total of 13 I. ricinus nymphs, of which 100% were affected in that they either dropped off or walked down the warm glass plate. Of 12 Ixodes ricinus tested in the control (ethanol only) only one tick (8%) was affected (Table 8).

[4] = netting treated with 38 μg/cm^2

## CCN(CC)C(=O)c1cccc(C)c1 [DEET, N,N-diethyl-3-methylbenzamide, reference compound]
A. gambiae females
  inhibition of landing on treated netting (in words): clearly inhibited
A. gambiae females; [4]
  Mean Landings/5 minutes: 0 Landings/5 minutes
A. gambiae females; netting treated with 57 μg/cm^2 (300 nmol/cm^2)
  Mean Landings/5 minutes: 0 Landings/5 minutes
[1]; 20 nmol/cm^2
  Median of landings: 6
[1]; 200 nmol/cm^2
  Median of landings: 5

## Cc1ccc(C(C)C)cc1O [carvacrol, 5-isopropyl-2-methylphenol]
[2]
  EAG response of antenna: capable of triggering EAG responses
A. gambiae females
  inhibition of landing on treated netting (in words): clearly inhibited
A. gambiae females; [4]
  Mean Landings/5 minutes: 0 Landings/5 minutes
A. gambiae females; netting treated with 76 μg/cm^2 (500 nmol/cm^2)
  Mean Landings/5 minutes: 0 Landings/5 minutes
[3]
  % affected ticks: 75%
[1]; 20 nmol/cm^2
  Median of landings: 23
[1]; 200 nmol/cm^2
  Median of landings: 1
[1]; 20 and 200 nmol/cm^2
  repellence of sand flies from the warm body (in words): as effective as DEET at 20 nmol/cm^2

## CC(C)c1ccc(CO)cc1 [cumin alcohol]
[2]
  EAG response of antenna: capable of triggering EAG responses
